| melting point [°C] | Compound |
| --- | --- |
| 118 to 120 | N#Cc1c(-c2ccc(NC(=O)OC(c3ccccc3)C(F)(F)F)cc2)n(C2CCC2)c2cc(OCCCCn3cncn3)ccc12 (stereo not shown) [Compound 2645] |
| 187 to 189 | CC(OC(=O)Nc1ccc(-c2c(C#N)c3ccc(OCC4OCCO4)cc3n2C2CCC2)cc1)C(F)(F)F (stereo not shown) [Compound 2646] |
| 130 to 133 | CC(OC(=O)Nc1ccc(-c2c(C#N)c3ccc(OC4CCOCC4)cc3n2C2CC2)cc1)C1CC1 (stereo not shown) [Compound 2647] |
| 203 to 205 | CC(OC(=O)Nc1ccc(-c2c(C#N)c3ccc(OC4CCOCC4)cc3n2C2CC2)cc1)C(C)(C)C (stereo not shown) [Compound 2648] |
| 207 to 209 | CC(OC(=O)Nc1ccc(-c2c(C#N)c3ccc(OC4CCOCC4)cc3n2C2CC2)cc1)C(F)(F)F (stereo not shown) [Compound 2649] |
| 189 to 192 | CC(NC(=O)Nc1ccc(-c2c(C#N)c3ccc(OC4CCOCC4)cc3n2C2CC2)cc1)c1ccc(F)cc1 (stereo not shown) [Compound 2653] |
| 202 to 205 | N#Cc1c(-c2ccc(NC(=O)OC(C(F)(F)F)C(F)(F)F)cc2)n(C2CCC2)c2cc(OCC3OCCO3)ccc12 [Compound 2657] |
| 102 to 105 | COCCN(C)C(=O)c1ccc2c(C#N)c(-c3ccc(NC(=O)OC(C)C)cc3)n(C3CCC3)c2c1 [Compound 2659] |
| 195 to 202 | CCOc1ccc2c(C#N)c(-c3ccc(S(=O)(=O)N4CCCCC4)cc3)n(C3CCC3)c2c1 [Compound 2661] |
| 184 to 190 | CCn1nnc(COc2ccc3c(C#N)c(-c4ccc(NC(=O)OC(C)C)cc4)n(C4CCC4)c3c2)n1 [Compound 2667] |
| 195 to 197 | CC(OC(=O)Nc1ccc(-c2c(C#N)c3ccc(OC4CCOCC4)cc3n2C2CCC2)cc1)C(F)(F)F (stereo not shown) [Compound 2668] |
| 204 to 205 | COCCOc1ccc2c(C#N)c(-c3ccc(NC(=O)OC(C)C(C)(C)C)cc3)n(C(C)C)c2c1 (stereo not shown) [Compound 2670] |
| 148 to 150 | COCCOc1ccc2c(C#N)c(-c3ccc(NC(C4CC4)C4CC4)cc3)n(C(C)C)c2c1 [Compound 2671] |
| 190 to 192 | N#Cc1c(-c2ccc(NC(=O)OC3CCC3)cc2)n(C2CCC2)c2ccc(OCCn3cncn3)cc12 [Compound 2677] |
| 162 to 165 | COCCOc1ccc2c(C#N)c(-c3ccc(NC(=O)OC(C)C(F)(F)F)cc3)n(C(C)C)c2c1 (stereo not shown) [Compound 2686] |
| 89 to 112 | COCCOc1ccc2c(C#N)c(-c3ccc(NC(=O)OC(C)c4ccc(F)cc4)cc3)n(C(C)C)c2c1 (stereo not shown) [Compound 2687] |
| 150 to 155 | COCCOc1ccc2c(C#N)c(-c3ccc(NC(=O)OC(c4ccccc4)C(F)(F)F)cc3)n(C(C)C)c2c1 (stereo not shown) [Compound 2688] |
| 180 to 183 | CCOc1ccc2c(C#N)c(-c3ccc(S(=O)(=O)N4CCC[C@H]4CO)cc3)n(C3CCC3)c2c1 [Compound 2689] |
| 170 to 172 | CCOc1ccc2c(C#N)c(-c3ccc(S(=O)(=O)N4CCC[C@@H]4CO)cc3)n(C3CCC3)c2c1 [Compound 2690] |
| 155 to 160 | C[C@@H](OC(=O)Nc1ccc(-c2c(C#N)c3ccc(OCCCS(C)(=O)=O)cc3n2C2CCC2)cc1)C1CC1 [Compound 2694] |
| 126 to 128 | C[C@@H](OC(=O)Nc1ccc(-c2c(C#N)c3ccc(OC4CCOCC4)cc3n2C2CCC2)cc1)C1CC1 [Compound 2696] |
| 145 to 146 | CC(C)OC(=O)Nc1ccc(-c2c(C#N)c3ccc(OCCSc4ccccn4)cc3n2C2CCC2)cc1 [Compound 2697] |

| melting point [°C] | Compound |
| --- | --- |
| 69 to 72 | CC(C)OC(=O)Nc1ccc(-c2c(C#N)c3ccc(OCCSc4ncccn4)cc3n2C2CCC2)cc1 [Compound 2698] |
| 150 to 151 | Cc1nnc(SCCOc2ccc3c(C#N)c(-c4ccc(NC(=O)OC(C)C)cc4)n(C4CCC4)c3c2)s1 [Compound 2699] |
| 132 to 133 | CSCCOc1ccc2c(C#N)c(-c3ccc(NC(=O)OC(C)C)cc3)n(C3CCC3)c2c1 [Compound 2700] |
| 116 to 117 | COCCOc1ccc2c(C#N)c(-c3ccc(NC(=O)O[C@H](C)C4CC4)cc3)n(C3CCC3)c2c1 [Compound 2702] |
| 166 to 168 | C[C@@H](OC(=O)Nc1ccc(-c2c(C#N)c3ccc(O[C@H]4CCOC4)cc3n2C2CCC2)cc1)C1CC1 [Compound 2703] |
| 180 to 183 | CCOc1ccc2c(C#N)c(-c3ccc(NC(=O)O[C@H](C)c4ccncc4)cc3)n(C3CCC3)c2c1 [Compound 2705] |
| 180 to 183 | CCOc1ccc2c(C#N)c(-c3ccc(NC(=O)O[C@@H](C)c4ccncc4)cc3)n(C3CCC3)c2c1 [Compound 2706] |
| 211 to 213 | CC(OC(=O)Nc1ccc(-c2c(C#N)c3ccc(Oc4ncccn4)cc3n2C2CCC2)cc1)C(F)(F)F (stereo not shown) [Compound 2707] |
| 200 to 202 | CC(OC(=O)Nc1ccc(-c2c(C#N)c3ccc(Oc4ncccn4)cc3n2C2CCC2)cc1)c1ccc(F)cc1 (stereo not shown) [Compound 2708] |
| 246 to 248 | N#Cc1c(-c2ccc(NC(=O)OC(c3ccccc3)C(F)(F)F)cc2)n(C2CCC2)c2cc(Oc3ncccn3)ccc12 (stereo not shown) [Compound 2709] |
| 240 to 242 | CC(NC(=O)Nc1ccc(-c2c(C#N)c3ccc(Oc4ncccn4)cc3n2C2CCC2)cc1)c1ccc(F)cc1 (stereo not shown) [Compound 2710] |
| 157 to 159 | COCCOc1ccc2c(C#N)c(-c3ccc(NC(=O)O[C@H](C)C4CC4)cc3)n(C3CC3)c2c1 [Compound 2711] |
| 149 to 151 | C[C@@H](OC(=O)Nc1ccc(-c2c(C#N)c3ccc(OC4CCOCC4)cc3n2C2CC2)cc1)C1CC1 [Compound 2712] |
| 150 to 152 | CCSc1ccc2c(C#N)c(-c3ccc(NC(=O)OC(C)C)cc3)n(C3CCC3)c2c1 [Compound 2713] |
| 165 to 168 | CC[S+]([O-])c1ccc2c(C#N)c(-c3ccc(NC(=O)OC(C)C)cc3)n(C3CCC3)c2c1 (stereo not shown) [Compound 2714] |
| 123 to 125 | Cc1nccc(Oc2ccc3c(C#N)c(-c4ccc(NC(=O)O[C@H](C)C5CC5)cc4)n(C4CC4)c3c2)n1 [Compound 2715] |
| 173 to 175 | C[C@@H](OC(=O)Nc1ccc(-c2c(C#N)c3ccc(Oc4ncccn4)cc3n2C2CCC2)cc1)c1ccc(F)cc1 [Compound 2716] |
| 188 to 191 | COCCOc1ccc2c(C#N)c(-c3ccc(NC(=O)OC(C)(C)C(F)(F)F)cc3)n(C(C)C)c2c1 [Compound 2718] |
| 88 to 100 | COCCOc1ccc2c(C#N)c(-c3ccc(NC(=O)O[C@H](C)C4CC4)cc3)n(C(C)C)c2c1 [Compound 2719] |
| 182 to 184 | C[C@@H](OC(=O)Nc1ccc(-c2c(C#N)c3cc(OCCCn4ccnc4)ccc3n2C2CCC2)cc1)C1CC1 [Compound 2723] |
| 229 to 231 | N#Cc1c(-c2ccc(NC(=O)OCc3ccccc3)cc2)n(C2CCC2)c2ccc(OCCCn3ccnc3)cc12 [Compound 2726] |
| 232 to 234 | CC(C)NC(=O)Nc1ccc(-c2c(C#N)c3cc(OCCCn4ccnc4)ccc3n2C2CCC2)cc1 [Compound 2727] |

| melting point [°C] | Compound |
| --- | --- |
| 149 to 150 | CC(OC(=O)Nc1ccc(-c2c(C#N)c3cc(OCCCn4cncn4)ccc3n2C2CCC2)cc1)C1CCC1 (stereo not shown) [Compound 2730] |
| 215 to 217 | N#Cc1c(-c2ccc(NC(=O)OCc3ccccc3)cc2)n(C2CCC2)c2ccc(OCCCn3cncn3)cc12 [Compound 2732] |
| 206 to 208 | C[C@H](OC(=O)Nc1ccc(-c2c(C#N)c3cc(OCCCn4cncn4)ccc3n2C2CCC2)cc1)c1ccccc1 [Compound 2733] |
| 206 to 208 | C[C@@H](OC(=O)Nc1ccc(-c2c(C#N)c3cc(OCCCn4cncn4)ccc3n2C2CCC2)cc1)c1ccccc1 [Compound 2734] |
| 161 to 164 | COc1ccnc(Oc2ccc3c(C#N)c(-c4ccc(NC(=O)O[C@H](C)C5CC5)cc4)n(C4CCC4)c3c2)n1 [Compound 2736] |
| 179 to 183 | COc1ccnc(Oc2ccc3c(C#N)c(-c4ccc(NC(=O)OC(C)C)cc4)n(C4CCC4)c3c2)n1 [Compound 2739] |
| 208 to 210 | CC(C)n1c(-c2ccc(NC(=O)O[C@H](C)C3CC3)cc2)c(C#N)c2ccc(OC3CCOCC3)cc21 [Compound 2741] |
| 189 to 192 | CC(C)n1c(-c2ccc(NC(=O)O[C@H](C)C3CC3)cc2)c(C#N)c2ccc(O[C@H]3CCOC3)cc21 [Compound 2742] |
| 151 to 153 | CC(C)n1c(-c2ccc(NC(=O)O[C@H](C)C3CC3)cc2)c(C#N)c2ccc(O[C@@H]3CCOC3)cc21 [Compound 2743] |
| 195 to 197 | CCOP(=O)(Nc1ccc(-c2c(C#N)c3ccc(OC4CCOCC4)cc3n2C2CCC2)cc1)OCC [Compound 2744] |
| 207 to 209 | CCS(=O)(=O)Nc1ccc(-c2c(C#N)c3ccc(OC4CCOCC4)cc3n2C2CCC2)cc1 [Compound 2745] |
| 185 to 187 | CCCS(=O)(=O)Nc1ccc(-c2c(C#N)c3ccc(OC4CCOCC4)cc3n2C2CCC2)cc1 [Compound 2746] |
| 202 to 204 | N#Cc1c(-c2ccc(NS(=O)(=O)C3CC3)cc2)n(C2CCC2)c2cc(OC3CCOCC3)ccc12 [Compound 2747] |
| 211 to 213 | CC(C)S(=O)(=O)Nc1ccc(-c2c(C#N)c3ccc(OC4CCOCC4)cc3n2C2CCC2)cc1 [Compound 2748] |
| 224 to 226 | N#Cc1c(-c2ccc(N3CCCS3(=O)=O)cc2)n(C2CCC2)c2cc(OC3CCOCC3)ccc12 [Compound 2749] |
| 221 to 225 | COc1ccnc(Oc2ccc3c(C#N)c(-c4ccc(NC(=O)NC(C)C)cc4)n(C4CCC4)c3c2)n1 [Compound 2750] |
| 136 to 138 | CCN(CC)C(=O)c1ccc(-c2c(C#N)c3ccc(OCCOC)cc3n2C2CCC2)cc1 [Compound 2752] |
| 202 to 204 | COCCOc1ccc2c(C#N)c(-c3ccc(C(=O)NC(C)C)cc3)n(C3CCC3)c2c1 [Compound 2753] |
| 148 to 150 | COCCOc1ccc2c(C#N)c(-c3ccc(C(=O)N4CCOCC4)cc3)n(C3CCC3)c2c1 [Compound 2754] |
| 166 to 168 | COCCOc1ccc2c(C#N)c(-c3ccc(C(=O)N4CCC4)cc3)n(C3CCC3)c2c1 [Compound 2755] |

Reference: patent publication US7772271B2 (priority 2004, dated 2010)
